Measurements taken from patent US20120022142A1, “RNA Interference Mediated Inhibition of Signal Transducer and Activator of Transcription 1 (STAT1) Gene Expression Using Short Interfering Nucleic Acid (siNA)” (Merck Sharp & Dohme Corp., priority 2009, published 2012).
[invAb] = inverted abasic unit; m = 2'-O-methyl; r = 2'-OH (RNA); f = 2'-fluoro

Experiments:
STAT1 mouse mRNA = test: Initial screen of siNAs: STAT1 mRNA knock-down in NIH 3T3 cells (96-well transfection, Taqman RT-PCR); format: cell-based; settings: 10 nM siNA, 24 hrs, normalized against GAPDH, average of 2 experiments
Protocol: (§1) NIH 3T3 (mouse; ATCC cat# CRL-1658): Cells were cultured at 37° C. in the presence of 5% CO2 and grown in Dulbecco's modified Eagle's medium (DMEM) with 4 mM L-glutamine adjusted to contain 1.5 g/L sodium bicarbonate and 4.5 g/L glucose and supplemented with fetal bovine serum at a final concentration of 10%, 100 μg/mL of streptomycin, and 100 U/mL penicillin.
Cells were plated in all wells of a tissue-culture treated, 96-well plate at a final count of 5000 cells/well in 100 μL of the appropriate culture media. The cells were cultured for 24 hours after plating at 37° C. in the presence of 5% CO2.
After 24 hours, complexes containing siNA and RNAiMax were created as follows: A solution of RNAiMax diluted 33-fold in OPTI-MEM was prepared. In parallel, solutions of the siNAs for testing were prepared to a final concentration of 120 nM in OPTI-MEM. After incubation of RNAiMax/OPTI-MEM solution at room temperature for 5 min, an equal volume of the siNA solution and the RNAiMax solution were added together for each of the siNAs.
This solution was incubated at room temperature for 20 minutes. After incubation, 20 uL of the solution was added to each of the relevant wells. The final concentration of siNA in each well was 10 nM and the final volume of RNAiMax in each well was 0.3 ul.
The time of incubation with the RNAiMax-siNA complexes was 24 hours and there was no change in media between transfection and harvesting, unless otherwise indicated.
RNA was extracted from a 96-well plate using the TaqMan® Gene Expression Cells-to-CT™ Kit (Cat# 4399002) with a modified protocol. Briefly, a 60 uL (1 plate) or 110 uL (2 plates) of the Lysis Solution with DNase I was dispensed into each well of the Lysis Buffer Plate (twin.tec full skirt plate). The lysis buffer and stop plates were stored at 4° C. until the cells were washed.
The culture medium was aspirated and discarded from the wells of the culture plate. 50 uL of chilled DPBS was added to each well, then aspirated and discarded. The lysis was performed automatically using a BioMek FX instrument and method. After the Biomek method was completed, the lysis plate was incubated for 2 min at room temperature. The lysis plate can be stored for 2 hours at 4° C., or at −20° C. or −80° C. for two months.
Each well of the reverse transcription plate required 10 uL of 2× reverse transcriptase Buffer, 1 uL of 20× reverse transcription enzyme and 2 uL of nuclease-free water. The reverse transcription master mix was prepared by mixing 2× reverse transcription buffer, 20× reverse transcription enzyme mix, and nuclease-free water. 13 uL of the reverse transcription master mix was dispensed into each well of the reverse transcription plate (semi-skirted). A separate reverse transcription plate was prepared for each cell plate. The plate was loaded onto a Biomek NX or Biomek FX Dual-96 and the Biomek method was run. The program is programmed to automatically added 7 uL of lysate from the cell lysis procedure described above into each well of the reverse transcription plate. The plate is sealed and spun on a centrifuge (1000 rpm for 30 seconds) to settle the contents to the bottom of the reverse transcription plate. The plate is placed in a thermocycler at 37° C. for 60 min, 95° C. for 5 min, and 4° C. until the plate is removed from the thermocycler. Upon removal, if not used immediately, the plate was frozen at −20° C.
(§2) A series of probes and primers were used to detect the various mRNA transcripts of the genes of β-Actin (human cell line only), and of STAT1 and GAPDH in mouse and human cell lines. All Taqman probes and primers for the experiments here-in described were supplied as pre-validated sets by Applied Biosystems, Inc. (see Table 2).
The assays were performed on an ABI 7900 instrument, according to the manufacturer's instructions. […]

STAT1 mRNA [1] = test: Efficacy (% KD) and potency (IC50) of STAT1 mRNA knockdown of siNA leads in NIH3T3 cells; format: cell-based, mouse; settings: mean ± S.D.; for IC50: STAT1 mRNA knockdown, read-out: Mouse (NIH3T3) IC50; for Mouse (NIH3T3) avg % KD: STAT1 mRNA, 30 nM siNA, at least three experiments
Protocol: as §1, §2
The assays were performed on an ABI 7900 instrument, according to the manufacturer's instructions.
The expression level of the gene of interest and % knock-down was calculated using Comparative Ct method: […]
All calculations of IC50s were performed using SigmaPlot 10.0 software. The data were analyzed using the sigmoidal dose-response (variable slope) equation for simple ligand binding. In all of the calculations of the % knock-down, the calculation was made relative to the normalized level of expression of the gene of interest in the samples treated with the non-targeting control (Ctrl siNA) unless otherwise indicated.
Certain siNAs were further analyzed for efficacy in human A549 cells and mouse NIH3T3 cells. Percent KD/reduction is represented as mean±S.D. IC50 is represented as mean±S.D. The date is summarized from at least three separate experiments and within each experiment, the data point is calculated from an n=2. The final concentration of siNA used was 30 nM.

STAT1 mRNA [2] = test: STAT1 mRNA level at 24, 48 and 72 hours post-transfection in A549 cells; format: cell-based, human; settings: STAT1 mRNA remaining vs control, A549, 30 nM; for mRNA 24 hr: 24 hr post-transfection; for mRNA 48 hr: 48 hr post-transfection; for mRNA 72 hr: 72 hr post-transfection
Protocol: A549 cells were plated in 6-well plates at final counts of 70,000 cells/well in 2 ml of complete growth media (Ham's F12, Cellgro Cat# 10-080-CV+10% FBS). Transfection was performed using 2.5 uL of RNAiMax (Invitrogen Cat# 13778-150) per well. Final concentration of siNAs was 30, 3, 0.3, 0.03, 0.003, and 0.0003 nM done in duplicate. The siNAs were incubated for 24-72 hours. The duplicate samples were pooled to prepare protein lysates and RNA using the “PARIS” Protein and RNA Isolation System from Ambion, Cat# 1921. The total protein in the lysates was measured using a Bradford Dye Reagent (Bio-Rad, Cat# 500-0205).SDS-PAGE/Western Blotting was performed on the on the protein samples and RT-PCR on the RNA samples.
as §2
An assessment of the level of mRNA at each timepoint was also made and protein samples from the treated cells were used in Western blots with an α-STAT1 antibody. (Clontech, Cat# 610185) and anti-Tubulin Ab (Sigma # T6199) in human A549 cells. Cells were transfected 24, 48 or 72 hours before harvesting total protein and the final concentration of siNAs was 30 nM. Lanes were loaded with 10 ug of total protein. Quantification was done of both the STAT1α and the STAT1β proteins together. All the siNAs tested reduced STAT1 protein at each of the tested timepoints, with the highest degree of protein reduction being observed at 72 hours post-transfection.

| Substance | % KD Mouse (STAT1 mouse mRNA) | IC50 (STAT1 mRNA [1]) | Mouse (NIH3T3) avg % KD (STAT1 mRNA [1]) | mRNA 24 hr (STAT1 mRNA [2]) | mRNA 48 hr (STAT1 mRNA [2]) | mRNA 72 hr (STAT1 mRNA [2]) |
| --- | --- | --- | --- | --- | --- | --- |
| 25351-DC: STAT1 siNA duplex, human target site 2249; modified strands SEQ ID NO: 39 and 40 (chain 1 CCUACACGAAGAAAGAACUTT; chain 2 AGUUCUUUCUUCGUGUAGGUU; chain 1: DNA at AGT, 2'-fluoro at CU, [invAb] at 5' end, 3' end, backbone not given here; chain 2: sugars from the 5' end rrrfffffffffmfmfmmmmm, backbone not given here) | 82% | 0.248 ± 0.086 nM | 85.1 ± 3.5% | 3% | 2% | 2% |
| 25367-DC: STAT1 siNA duplex, human target site 966; modified strands SEQ ID NO: 71 and 72 (chain 1 GCUUGACAAUAAGAGAAAGTT; chain 2 CUUUCUCUUAUUGUCAAGCUU; chain 1: DNA at AGT, 2'-fluoro at CU, [invAb] at 5' end, 3' end, backbone not given here; chain 2: sugars from the 5' end rrrffffffmffmffmmmfmm, backbone not given here) | 82% | 0.16 ± 0.034 nM | 84.6 ± 2.6% | 3% | 2% | 2% |
| 25368-DC: STAT1 siNA duplex, human target site 782; modified strands SEQ ID NO: 73 and 74 (chain 1 GUAAAGUCAGAAAUGUGAATT; chain 2 UUCACAUUUCUGACUUUACUU; chain 1: DNA at AGT, 2'-fluoro at CU, [invAb] at 5' end, 3' end, backbone not given here; chain 2: sugars from the 5' end rrrmfmfffffmmffffmfmm, backbone not given here) | 87% | 0.072 ± 0.023 nM | 89.9 ± 6.0% | 3% | 3% | 3% |
| 25369-DC: STAT1 siNA duplex, human target site 602; modified strands SEQ ID NO: 75 and 76 (chain 1 GGAAAAGCAAGCGUAAUCUTT; chain 2 AGAUUACGCUUGCUUUUCCUU; chain 1: DNA at AGT, 2'-fluoro at CU, [invAb] at 5' end, 3' end, backbone not given here; chain 2: sugars from the 5' end rrrffmfmfffmfffffffmm, backbone not given here) | 66% | 0.58 ± 0.109 nM | 60.8 ± 3.5% | 8% | 7% | 14% |
| 25372-DC: STAT1 siNA duplex, human target site 968; modified strands SEQ ID NO: 81 and 82 (chain 1 UUGACAAUAAGAGAAAGGATT; chain 2 UCCUUUCUCUUAUUGUCAAUU; chain 1: DNA at AGT, 2'-fluoro at CU, [invAb] at 5' end, 3' end, backbone not given here; chain 2: sugars from the 5' end rrrffffffffmffmffmmmm, backbone not given here) | 81% | 0.182 ± 0.051 nM | 87.3 ± 7.2% | 4% | 3% | 3% |
